# Assay results taken from BindingDB's records for doi:10.1007/s00044-010-9377-3 (n/a, 2011).
# Assay: Inhibition of rat intestinal alpha-glucosidase using p-nitrophenyl- alpha-D-glucopyranoside as substrate preincubated for 5 min before addition of substrate measured after 10 min
row,SMILES,IC50 [µM]
1,O=[N+]([O-])c1ccc(/N=C/c2ccccc2O)cc1,22.7
2,"O=Cc1cc(Br)ccc1O [US8614253,3-44]",8.8
3,COc1ccc(/N=C/c2cc(Br)ccc2O)cc1,74.1
